According to patent US20130273649A1, “Culture medium for pluripotent stem cells” (UNIVERSITY OF SOUTHERN CALIFORNIA, priority 2012, published 2013):

What was measured:
β-catenin = assay: Western blot of nuclear β-catenin in mouse EpiSCs; format: cell-based; conditions: 3 μM CHIR 12 h
Description: (A) Western blot analysis of cytoplasmic, nuclear and total β-catenin levels in CD1 mouse EpiSCs overexpressing Flag-tagged Axin1 or Axin2. Cells were either untreated or treated with 3 μM CHIR for 12 h. (B) Immunostaining of CD1 mouse EpiSCs overexpressing Flag-tagged Axin2 (C) Co-IP of Flag or β-catenin in CD1 mouse EpiSCs overexpressing empty vector or Flag-tagged Axin2. Cells were treated with 3 μM CHIR for 12 h (D) Immunostaining of ΔNβ-catenin-ERT2-overexpressing CD1 mouse EpiSCs before and after treatment with 1 μM 4-OHT. (E). Western blot analysis of cytoplasmic and nuclear ΔNβ-catenin-ERT2 levels after treatment with 1 μM 4-OHT for 24 h. (F). Phase contrast image of ΔNβ-catenin-ERT2-EpiSCs after 25 passages in basal medium only. (G) qRT-PCR analysis of Oct4, Nanog and Fgf5 mRNA levels in ΔNβ-catenin-ERT2-EpiSCs maintained in basal medium or basal medium plus FGF2/activin for 11 passages. Data represent mean±s.d. of three biological replicates. (H) Phase contrast image of ΔNβ-catenin-ERT2-EpiSCs after treatment with 1 μM 4-OHT for 24 h. […]
Next, we investigated how β-catenin mediates EpiSC self-renewal. […] To determine whether nuclear translocation of β-catenin is affected by Axin, we analyzed β-catenin protein levels in whole-cell, cytoplasmic and nuclear fractions before and after CHIR treatment. […] In Axin2-EpiSCs, Axin2 expression was mainly detected in the cytoplasm (FIG. 6B). […]

Axin1 = assay: Western blot of Axin1 in human ESCs; format: cell-based; conditions: human ESCs treated 24 h
Description: (A) TOPFlash™ assay in H9 human ESCs subjected to the indicated treatments for 24 h. Data represent mean±s.d. of three biological replicates. (B) Representative phase contrast and alkaline phosphatase (AP) staining images of H9 human ESCs cultured in the indicated conditions for 3 passages. (C) Phase contrast images of H9 human ESCs cultured in CHIR/XAV or CHIR/IWR-1 for 11 passages. (D) Colony forming efficiency assay of H9 human ESCs cultured in FGF2 or CHIR/IWR-1 conditions. Data represent mean±s.d. of three biological replicates. Right panel: a representative image showing AP staining of colonies formed from H9 human ESCs cultured in either FGF2 or CHIR/IWR-1 condition. (E) Human ESCs cultured in CHIR/IWR-1 for 11 passages were immunostained with the indicated antibodies. (F) Embryoid bodies (EBs) were generated from H9 human ESCs cultured in CHIR/IWR-1 for 11 passages. The outgrowths of EBs were immunostained with the indicated antibodies. (G) H&E staining of teratomas generated from H9 ESCs cultured in CHIR/IWR-1 for 20 passages. (H) Western blot analysis of Axin1 and Axin2 expression in HES3 human ESCs treated with the indicated cytokines/inhibitors for 24 h. (I) Immunofluorescence images of H9 human ESCs (passage 5 in CHIR) overexpressing Flag-tagged Axin2. […]

## Cc1c[nH]c(-c2cnc(NCCNc3ccc(C#N)cn3)nc2-c2ccc(Cl)cc2Cl)n1 [CHIR99021, 6-((2-((4-(2,4-Dichlorophenyl)-5-(4-methyl-1H-imidazol-2-yl)pyrimidin-2-yl)amino)ethyl)amino)nicotinonitrile]
β-catenin; Axin2-EpiSCs
  nuclear β-catenin protein level: barely detectable
β-catenin; vector-EpiSCs and Axin1-EpiSCs
  nuclear β-catenin protein level: dramatically increased
Axin1
  amount of Axin1 protein: not Axin1
